Measured values reported in patent publication US10100057B2, “Imidazopyrimidine and imidazotriazine derivative, and pharmaceutical composition comprising the same” (SK BIOPHARMACEUTICALS CO., LTD., priority 2016, dated 2018).

Biological target: human mGluR5 receptor (Homo sapiens (Human), UniProt P41594)
Assay: Calcium influx assay based on fluorescence (mGluR5 positive allosteric modulator activity)
Settings: human mGluR5 receptor-overexpressed HEK293 cell line; L-glutamate EC20; Fluo-4, FLIPR; read-out: Human mGluR5 PAM EC50
Experimental: Efficacy as a positive allosteric modulator (PAM) of mGluR5 of the compounds of the Examples was tested as follows:
Calcium Influx Assay Based on Fluorescence
Ca^2+ (calcium) influx assay is an experiment for measuring the activity of a positive allosteric modulator of mGluR5 receptor in which human mGluR5 receptor-overexpressed HEK293 cell line is used. The day before the experiment, cells were prepared in a cell culture medium (DMEM, 5% FBS) with the density of 80,000/well, and 100 μl of cells were dispensed into each well of a poly-D-lysine-coated 96-well plate. Cells were incubated in a 5% CO2, 37° C. incubator. The next day, the cell culture medium was removed from the plate, and 100 μl of 1× Fluo-4 calcium indicator diluted with a buffer (1× Hank's balanced salt solution, 20 mM HEPES, 2.5 mM probenecid) were added to each well and incubated at 37° C. for 1 hour. The compound stock solutions were prepared in 100% DMSO, and the compounds were serially diluted with a 1/4 dilution to 6 or 7 concentrations (final concentration was 10 μM to 10 nM). The diluted compound solutions were added to the plate with 0.1 to 0.2% of final DMSO concentration. 1 hour after the addition of Fluo-4 calcium indicator, L-glutamate (EC20 concentration) and the test compound solutions were added to the plate, and Ca^2+ reaction was then measured by FLIPR at room temperature. The activity of the compounds was standardized on the basis of the results of maximum value-minimum value of fluorescent reaction, and the activity value was calculated on the basis that no activity on glutamate EC20 is 0% and the reaction to glutamate maximum value is 100%.

human mGluR5 receptor, sequence (P41594 21-1212): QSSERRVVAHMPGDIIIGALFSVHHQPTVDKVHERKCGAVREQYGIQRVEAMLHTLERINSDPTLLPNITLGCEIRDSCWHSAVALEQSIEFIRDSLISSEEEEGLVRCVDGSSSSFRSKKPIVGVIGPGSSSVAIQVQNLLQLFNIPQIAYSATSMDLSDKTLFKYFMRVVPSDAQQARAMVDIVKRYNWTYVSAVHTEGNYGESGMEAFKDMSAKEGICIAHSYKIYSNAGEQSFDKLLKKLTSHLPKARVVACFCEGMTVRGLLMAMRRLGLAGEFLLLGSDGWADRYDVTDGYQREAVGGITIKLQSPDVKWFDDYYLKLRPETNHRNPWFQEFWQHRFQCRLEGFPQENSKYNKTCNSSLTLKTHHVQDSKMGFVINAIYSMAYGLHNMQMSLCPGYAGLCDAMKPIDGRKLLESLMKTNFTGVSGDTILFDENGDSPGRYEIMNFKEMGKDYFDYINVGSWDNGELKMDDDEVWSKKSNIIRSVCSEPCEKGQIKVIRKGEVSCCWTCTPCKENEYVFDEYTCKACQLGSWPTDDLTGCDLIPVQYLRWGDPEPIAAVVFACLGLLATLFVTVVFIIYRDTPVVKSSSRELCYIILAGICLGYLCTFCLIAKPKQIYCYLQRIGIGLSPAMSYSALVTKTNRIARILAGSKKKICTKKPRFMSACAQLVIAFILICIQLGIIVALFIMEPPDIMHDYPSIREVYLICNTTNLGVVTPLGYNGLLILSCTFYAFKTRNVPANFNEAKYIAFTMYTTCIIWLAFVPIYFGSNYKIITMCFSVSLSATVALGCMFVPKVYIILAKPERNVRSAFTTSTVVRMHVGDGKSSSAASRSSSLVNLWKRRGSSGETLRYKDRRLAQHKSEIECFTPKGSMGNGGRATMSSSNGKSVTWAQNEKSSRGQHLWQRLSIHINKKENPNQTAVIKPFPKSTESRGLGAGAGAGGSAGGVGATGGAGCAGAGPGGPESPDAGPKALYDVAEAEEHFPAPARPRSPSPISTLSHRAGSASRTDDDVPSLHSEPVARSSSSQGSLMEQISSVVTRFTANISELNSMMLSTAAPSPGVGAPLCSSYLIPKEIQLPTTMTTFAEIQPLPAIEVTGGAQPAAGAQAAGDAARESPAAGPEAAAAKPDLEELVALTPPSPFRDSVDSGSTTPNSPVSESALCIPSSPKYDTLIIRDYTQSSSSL

Row | SMILES | EC50 [nM]
1 | Cc1ccccc1-c1cnc2nc(COc3ccnc(F)c3)cn2c1 [Example 168, 6-(2-methylphenyl)-2-(2-fluoropyridin-4-yloxymethyl)imidazo[1,2-a]pyrimidine] | ≤ 100
2 | Cc1ccccc1-c1cnc2nc(COc3ccccc3)cn2c1 [Example 5, 6-(2-methylphenyl)-2-phenoxymethylimidazo[1,2-a]pyrimidine] | ≤ 100
3 | Fc1ccc(-c2cnc3nc(COc4ccccc4)cn3c2)c(F)c1 [Example 3, 6-(2,4-difluorophenyl)-2-phenoxymethylimidazo[1,2-a]pyrimidine] | ≤ 100
4 | Fc1ccc(-c2cnc3nc(COc4ccccn4)cn3c2)nc1 [Example 132, 6-(5-fluoro-2-pyridyl)-2-(2-pyridyloxymethyl)imidazo[1,2-a]pyrimidine] | ≤ 100
5 | Cc1cc(-c2cnc3nc(COc4ccc(F)cc4)cn3c2)cnc1F [Example 91, 6-(6-fluoro-5-methyl-3-pyridyl)-2-[(4-fluorophenoxy)methyl]imidazo[1,2-a]pyrimidine] | ≤ 100
6 | Cc1cc(F)ccc1-c1cnc2nc(COc3cc(F)ccn3)cn2c1 [Example 116, 6-(4-fluoro-2-methyl-phenyl)-2-[(4-fluoro-2-pyridyl)oxymethyl)imidazo[1,2-a]pyrimidine] | ≤ 100
7 | Fc1ccc(OCc2cn3cc(-c4ccc(F)cc4Cl)cnc3n2)cc1 [Example 67, 6-(2-chloro-4-fluoro-phenyl)-2-[(4-fluorophenoxy)methyl]imidazo[1,2-a]pyrimidine] | ≤ 100
8 | OCc1cc(F)ccc1-c1cnc2nc(COc3ccccc3)cn2c1 [Example 25, 6-(4-fluoro-2-hydroxymethylphenyl)-2-phenoxymethylimidazo[1,2-a]pyrimidine] | ≤ 100
9 | Cc1cc(F)ccc1-c1cnc2nc(COc3ccnc(F)c3)cn2c1 [Example 162, 6-(4-fluoro-2-methylphenyl)-2-(2-fluoropyridin-4-yloxymethyl)imidazo[1,2-a]pyrimidine] | ≤ 100
10 | FCc1cc(F)ccc1-c1cnc2nc(COc3ccccn3)cn2c1 [Example 198, 6-[4-fluoro-2-(fluoromethyl)phenyl]-2-(2-pyridyloxymethyl)imidazo[1,2-a]pyrimidine] | ≤ 100
11 | Cc1cc(F)ccc1-c1cnc2nc(COc3ccccn3)cn2n1 [Example 188, 2-(4-fluoro-2-methyl-phenyl)-6-(2-pyridyloxymethyl)imidazo[1,2-b][1,2,4]triazine] | ≤ 100
12 | Fc1cccc(OCc2cn3cc(-c4ccc(C(F)(F)F)nc4)cnc3n2)c1 [Example 80, 2-[(3-fluorophenoxy)methyl]-6-[6-(trifluoromethyl)-3-pyridyl)imidazo[1,2-a]pyrimidine] | ≤ 100
13 | Cc1cc(F)ccc1-c1cnc2nc(COc3ccccc3)cn2c1 [Example 6, 6-(4-fluoro-2-methylphenyl)-2-phenoxymethylimidazo[1,2-a]pyrimidine] | ≤ 100
